# Test results taken from patent US5219825A, “Synergistic herbicidal compositions comprising herbicides which generate toxic oxygen radicals and chelating agents which inhibit their detoxification” (Yeda Research and Development Co., Ltd., priority 1986, dated 1993).
# Legend:
# [1] = tested on: isolated Asparagus sprengeri cells; experiment: Chlorophyll loss in isolated cells (synergism at the cellular level); assay type: cell-based; settings: for chlorophyll remaining - % of control: paraquat 0 μM, 14 h, 1000 μEin m^-2 s^-1; for % of control chlorophyll: DDC 0.02% where added, 40 h, low light 305 μEin m^-2 s^-1
# Description: Isolated cells offer an excellent rapid method of screening for phytotoxicity using a large number of potential chelators and synergists. Asparagus sprengeri cells were isolated from cladophylls of field grown plants using the procedure of Colman et al. (Can. J. Botany 57 1505, (1979)) except that the isolation, washing and culture buffer was 50 mM HEPES brought to pH 7.2 with KOH. The cladophylls were surface sterilized using 80% aqueous ethanol. After three centrifugations to remove broken cells, the cells were diluted to 10% packed volume and 0.75 ml were placed in each well of cluster dishes. The potential synergists in this example 0.02% w/v final concentration diethyldithiocarbamate (DDC) and an oxime of 4-octyl-2-acetyl-phenol (U.S. Pat. No. 4,215,219) which complex primarily with copper and di-2-ethylhexyl-phosphoric acid which complexes primarily with zinc (Flett, Chem and Ind. 17 706, (1977)) was placed with the herbicides atrazine and paraquat. All additions were made at 100 fold the final concentration of herbicide and synergist. Paraquat was dissolved in water and atrazine in methanol. The cluster dishes were incubated on a reciprocal shaker with a clear plastic bottom and illuminated from top and bottom with fluorescent lights emitting 135 μEin.m^-2 s^-1 (top) and 170 μEin.m^-2 s^-1 (bottom). The cells were kept mixed by the shaker and incubation was at room temperature. Incubation was stopped when there was visually obvious loss of chlorophyll due to treatments in a given experiment. The cells were removed to glass centrifugation tubes, centrifuged and the supernatant removed. One ml of 80% aqueous acetone was added to extract chlorophyll, the debris were sedimented by centrifugation and chlorophyll was spectrophotometrically determined at 645 and 663 nm according to Arnon (Plant Physiology 24 1, (1949)). […] In another experiment, a larger variety of chelating synergists and oxidant generating herbicides were used, and light was given at a much higher intensity 1000 μEin m^-2 s^-1 to better approach natural sunlight which is at 1200-1500 […].
# Paraquat toxicity was measured 24 h after treatment and atrazine toxicity was measured 40 h after treatment.
# Paraquat toxicity was measured 14 h after treatment.
# [2] = tested on: Conyza bonariensis low herbicide requiring biotype; experiment: Photosynthesis (14CO2 fixation) of leaf discs removed 5 h after spray treatment; assay type: in vivo; settings: foliar, DDC 0.5% where added, leaf discs removed 5 h after treatment, untreated control = 100
# Description: (§1) Similarly, both the paraquat resistant and sensitive biotypes of Conyza bonariensis were treated with two other oxidant generating herbicides. Atrazine (of the triazine group) is the most widely used oxidant generating herbicides in agriculture. We used various dilutions of a commercial wettable powder (Atranex 50WP-Agan Chemicals) to which we added 0.5% DDC. The effects were scored 24 h later. […] We also tested to see whether acifluorfen, a nitro diphenyl ether herbicide would be synergized. It is generally agreed that light and oxygen are required for its action via oxidant damage. We sprayed a commercial formulation of acifluorfen (Blazer, Rohm and Haas) to which were added 0.25% Tween-20 detergent, with and without DDC. The effects were scored 24 h later.
# ^b photosynthesis (^14 CO2 fixation) was used as an
# additional measurement of phytotoxicity. Leaf discs were removed 5 h afte
# treatment for measurement
# [3] = tested on: bean leaf discs; experiment: Bean leaf disc bleaching assay; assay type: cell-based; settings: 5 h at 450 μEin.m^-2 s^-1
# Description: We used this bean leaf disc system to ascertain the potential of chelators to synergize a large variety of phytotoxicants purported to act by generating active oxygen species in the light.
# Bean discs were incubated on solutions containing the above mixtures for 5 h at 450 μEin.m^-2 s^-1 and the chlorophyll remaining in the leaves was assayed.
# [4] = tested on: Conyza bonariensis high herbicide requiring biotype; experiment: Whole plant spray, visual rating; assay type: in vivo; settings: DDC 0.5% where added, high herbicide requiring biotype; for visual ratings: scored one day after treatment
# Excerpt: (§2) Seeds of Conyza bonariensis were germinated and plants cultivated as outlined in Example 1. Other species were germinated in a similar mixture and treated at 10 days.
# (§3) The commercial fungicides, maneb [manganese ethylene-bis(dithiocarbamate) (polymeric)] and zineb [zinc ethylene-bis (dithiocarbamate) (polymeric)] were used, they have similar structures and effects as DDC, but are blocked and act as chelate controls […] to clarify that a synergism would be due to the chelating effect of diethyldithiocarbamate. […] They could not chelate copper due to their being blocked.
# (§4) ^a visual ratings (scored 1 day after treatment): 0 no damage to
# (§5) slight burn; 1 moderate burn (may regenerate); 2 severe burn (will die)
# as §1
# [5] = tested on: Conyza bonariensis paraquat sensitive biotype; experiment: Phytotoxicity measured as 14CO2 fixation 24 h after spraying; assay type: in vivo; settings: sensitive biotype
# Description: (§6) Seeds of two biotypes of Conyza bonariensis (L.) Cronq. (synonym C. linifolia) were obtained from Egypt. The paraquat sensitive biotype was gathered near Alexendria and seeds of the resistant type from the Tahrir irrigation district. They were obtained from Dr. Martin Parham in England. Seeds were germinated in a growth room with a 14 h light period at 25° C. Plants were transferred out of doors 24 h before being sprayed. The phytotoxicity of three herbicides representative of the three different modes of generating active oxygen species known at present. Commercial paraquat (Gramoxone-ICI Plant Protection Ltd) was formulated with 0.1% (w/v) Tween-20 (a non-ionic surfactant) for spraying. The response to the range of 10^-5 M to 10^-2 M paraquat was measured by spraying two plants per concentration to run-off in the early morning. All plants were exposed to sunlight for at least 13 h (1300 μE.m^-2s^-1 photosynthetically active radiation (PAR) at mid day). Commercial acifluorfen (Blazer, Rohm, and Hass, Philadelphia, Pa., USA) to which was added 0.25% Tween-20 was sprayed to run-off. The response to spraying was measured as with paraquat 24 h after spraying. Commercial atrazine (Atranex 50 WP-Agan) was sprayed at various rates in 0.25% Tween 20 to run off. Fully expanded, 8 to 10 cm long leaves from plants in the rosette stage were used in all experiments. Phytotoxicity of acifluorfen and paraquat was measured as CO2 fixation 24 h later as follows: Detached leaves were placed on wet filter paper in a sealed chamber with 5μ Ci^14 C-sodium bicarbonate. Tartaric acid was remotely dripped on the sodium bicarbonate to release ^14 CO2. Leaves were illuminated with […] (PAR) for 30 min. Eighty percent acetone was added and the mixture put under strong light to photobleach pigments and evaporate the acetone. A scintillation mixture of Lumax:xylene (45:55) was added to the leaves and remaining water. The samples were counted and the data expressed as DPM.cm^-2. Area was measured with a planimeter from photocopies of the leaves made prior to photosynthesis measurements. Phytotoxicity of atrazine was measured as the elevated level of malonyldialdehyde in the tissue. Malonyldialdehyde (as measured with thiobarbituric acid according to Dodge and Gillham (Asp. Appl. Biol 11 97 (1986)) is a measurement of lipoxidation of unsaturated fatty acids, and provides an excellent estimation of damage by active oxygen species.
# [6] = tested on: Conyza bonariensis paraquat tolerant biotype; experiment: as above; assay type: in vivo; settings: tolerant biotype
# Description: as §6
# [7] = tested on: Conyza bonariensis paraquat tolerant (high herbicide requiring) biotype; experiment: Malonyldialdehyde in tissue (lipoxidation, membrane damage) after spraying; assay type: in vivo; settings: for membrane damage (malonyldialdehyde release): DDC 0.5% where added, high herbicide requiring biotype, untreated control = 100; for malonyldialdehyde in tissue (% untreated control): tolerant biotype
# Description: as §6
# (§7) ^b membrane damage was measured as malonyldialdehyde release
# as §1
# [8] = tested on: Conyza bonariensis paraquat sensitive (low herbicide requiring) biotype; experiment: as above; assay type: in vivo; settings: for membrane damage (malonyldialdehyde release): DDC 0.5% where added, low herbicide requiring biotype, untreated control = 100; for malonyldialdehyde in tissue (% untreated control): sensitive biotype
# Description: as §6, §7, §1
# [9] = tested on: Conyza bonariensis low herbicide requiring biotype; experiment: Whole plant spray, visual rating; assay type: in vivo; settings: DDC 0.5% where added, scored one day after treatment
# Excerpt: as §2, §3, §4, §5, §1
# [10] = tested on: leaves; experiment: Blocked chelate controls tested for synergism with paraquat; assay type: in vivo
# Excerpt: as §3
# [11] = herbicide molar conc. 3.2 × 10^-3
# [12] = atrazine 20 μM spray to run off
# [13] = atrazine 40 μM spray to run off
# [14] = atrazine molar conc. 1.0 × 10^-2
# [15] = atrazine molar conc. 1.5 (× 10^-2)
# [16] = atrazine molar conc. 2.0 (× 10^-2)
# [17] = atrazine molar conc. 3.0 (× 10^-2)
# [18] = atrazine molar conc. 4.0 (× 10^-2)
# [19] = atrazine molar conc. 5.0 (× 10^-2)
# [20] = atrazine 15 μM spray to run off
# [21] = atrazine 30 μM spray to run off
molecule,measurement,setting,value
"CCCCCCCCc1ccc(O)c(C(C)=NO)c1 [4-Octyl-2-acetyl-phenol oxime, oxime of 4-octyl-2-acetyl-phenol]",chlorophyll remaining - % of control,[1]; chelator alone 0.125%,96 % of control
"O=C(O)c1cccc(C(=O)O)n1 [Pyridine-2,6-dicarboxylic acid]",chlorophyll remaining - % of control,[1]; chelator alone 0.005%,100 % of control
"NCCNCCNCCNCCN [Tetraethylene-pentamine, tetraethylene pentamine]",chlorophyll remaining - % of control,[1]; chelator alone 0.025%,99 % of control
NCCNCCNCCN [Triethylene-tetramine],chlorophyll remaining - % of control,[1]; chelator alone 0.008%,90 % of control
O=C(O)c1cc(Oc2ccc(C(F)(F)F)cc2Cl)ccc1[N+](=O)[O-] [acifluorfen],activity at 3 µM,[2]; acifluorfen 3 μM spray to runoff,75%
same,activity at 100 µM,[2]; acifluorfen 100 μM spray to runoff,10%
same,chlorophyll - % of control,"[3]; acifluorfen 3 μM, chelator 0.01% w/v where added",91 % of control
same,visual rating,"[4]; acifluorfen 100 μM spray to runoff, scored 24 h after treatment",2.5
same,% photosynthesis inhibition,[5]; [11],72%
same,% photosynthesis inhibition,[5]; herbicide molar conc. 3.2 × 10^-4,40%
same,% photosynthesis inhibition,[5]; herbicide molar conc. 10^-2,98%
same,% photosynthesis inhibition,[5]; herbicide molar conc. 10^-3,58%
same,% photosynthesis inhibition,[5]; herbicide molar conc. 10^-4,23%
same,% photosynthesis inhibition,[6]; [11],67%
same,% photosynthesis inhibition,[6]; herbicide molar conc. 10^-2,99%
same,% photosynthesis inhibition,[6]; herbicide molar conc. 10^-3,21%
CCNc1nc(Cl)nc(NC(C)C)n1 [atrazine],% of control chlorophyll,"[1]; atrazine 3 × 10^-6 M, 3 µM",95 % of control
same,% of control chlorophyll,"[1]; atrazine 10^-5, 10 µM",92 % of control
same,membrane damage (malonyldialdehyde release),[7]; [12],100
same,membrane damage (malonyldialdehyde release),[7]; [13],100
same,malonyldialdehyde in tissue (% untreated control),[7]; [14],100 % untreated control
same,malonyldialdehyde in tissue (% untreated control),[7]; [15],100 % untreated control
same,malonyldialdehyde in tissue (% untreated control),[7]; [16],100 % untreated control
same,malonyldialdehyde in tissue (% untreated control),[7]; [17],100 % untreated control
same,malonyldialdehyde in tissue (% untreated control),[7]; [18],100 % untreated control
same,malonyldialdehyde in tissue (% untreated control),[7]; [19],125 % untreated control
same,membrane damage (malonyldialdehyde release),[8]; [12],130
same,membrane damage (malonyldialdehyde release),[8]; [13],225
same,malonyldialdehyde in tissue (% untreated control),[8]; [14],100 % untreated control
same,malonyldialdehyde in tissue (% untreated control),[8]; [15],135 % untreated control
same,malonyldialdehyde in tissue (% untreated control),[8]; [16],130 % untreated control
same,malonyldialdehyde in tissue (% untreated control),[8]; [17],155 % untreated control
same,malonyldialdehyde in tissue (% untreated control),[8]; [18],225 % untreated control
same,malonyldialdehyde in tissue (% untreated control),[8]; [19],320 % untreated control
same,visual ratings,[4]; [20],1.7
same,visual ratings,[4]; [21],1.7
same,visual ratings,[9]; [20],2.1
same,visual ratings,[9]; [21],2.3
"CCCCC(CC)COP(=O)(O)OCC(CC)CCCC (centres unmarked) [di-2-ethyl-hexyl-phosphoric acid, Di-2-ethyl-hexyl phosphoric acid]",chlorophyll remaining - % of control,[1]; chelator alone 0.001%,98 % of control
same,chlorophyll - % of control,"[3]; acifluorfen 0 μM, chelator alone 0.01% w/v",98 % of control
same,chlorophyll - % of control,"[3]; acifluorfen 0 μM, chelator alone 0.02% w/v",91 % of control
same,chlorophyll - % of control,"[3]; paraquat 0 μM, chelator alone 0.01% w/v",98 % of control
manganese ethylene-bis(dithiocarbamate) (polymeric) [maneb],synergistic effects with paraquat,[10],Neither maneb nor zineb had synergistic effects with paraquat
zinc ethylene-bis (dithiocarbamate) (polymeric) [zineb],synergistic effects with paraquat,[10],Neither maneb nor zineb had synergistic effects with paraquat
